This note sets out measurements from patent US20250214977A1, “STAT6 INHIBITORS AND USES THEREOF” (Kymera Therapeutics, Inc., priority 2024, published 2025).

For the experiment, the system named is Phosphorylation of STAT6 in human A549 cells. Kind of experiment: Phosphorylated STAT6 (pSTAT6) flow cytometry assay in human A549 cells. The format is cell-based. The conditions noted are these: read-out: STAT6 IL4 pSTAT6 assay in A549 cells: Average IC50. From the text: Example 3. Phosphorylated STAT6 (pSTAT6) Flow Cytometry Assay in Human A549 Cells
Phosphorylation of STAT6 in human A549 cells was quantitatively measured using flow cytometry technology.

In the case of `COc1ccccc1-c1cc(C2=CCCN(C(=O)CCn3ccnn3)C2)c(F)c2[nH]c(C(=O)N3CCC(=O)C3)cc12` [Example I-1031], the IC50 is below 0.1 µM. The figure for `COc1ccccc1-c1cc(C2=CCCN(C(=O)CCn3ccnn3)C2)c(F)c2[nH]c(C(=O)N3CCN(c4ccnc(Nc5ccc(C#N)cc5)n4)CC3)cc12` [Example I-948] is below 0.1 µM; for `COc1ccccc1N1CCN(C(=O)c2cc3c(-c4cnccc4OC(C)(C)C)cc(C4=CCCN(C(=O)CCn5ccnn5)C4)c(F)c3[nH]2)CC1` [Example I-404] it is above 100 µM. On to `COc1ccccc1-c1cc(C2=CCCN(C(=O)C3Cc4ccccc4CN3C=O)C2)cc2cc(C(=O)N(C)C)oc12` (stereo not drawn) [Example I-803, 5-(1-(2-formyl-1,2,3,4-tetrahydroisoquinoline-3-carbonyl)-1,2,5,6-tetrahydropyridin-3-yl)-7-(2-methoxyphenyl)-N,N-dimethylbenzofuran-2-carboxamide], for which the IC50 fell in the range of 10 to 100 µM.

Take `COc1cnccc1-c1cc(C2=CCCN(C(=O)CCn3ccnn3)C2)c(F)c2[nH]c(C(=O)N3CCN(c4ncc(Cl)cc4OC)CC3)cc12` [Example I-457]: the IC50 is below 0.1 µM.

Consider `COc1ccccc1-c1cc(C2=CCCN(C(=O)CCn3ccnn3)C2)c(F)c2[nH]c(C(=O)N3CCN(c4nccc5[nH]ccc45)CC3)cc12` [Example I-966], for which the IC50 was below 0.1 µM. As for `CCc1ccc(OC)c(N2CCN(C(=O)c3cc4c(-c5cnccc5OC)cc(C5=CCCN(C(=O)CCn6ccnn6)C5)c(F)c4[nH]3)CC2)n1` [Example I-466], the IC50 is below 0.1 µM. Regarding `CN(C)C(=O)c1cc2ccc(C3=CCCN(C(=O)CCc4ccon4)C3)cc2[nH]1` [Example I-831], the IC50 lay within 0.1 to 1 µM. The figure for `COc1ccccc1-c1cc(C2=CCCN(C(=O)CCn3ccnn3)C2)c(F)c2[nH]c(C(=O)N3CCN(c4ncc(C5CC5)cc4OC4CC4)CC3)cc12` [Example I-413] is 0.1 to 1 µM; for `COCCCOc1ccc(-c2cc(C3=CCCN(C(=O)CCn4ccnn4)C3)c(F)c3[nH]c(C(=O)N4CCN(c5ncc(F)cc5OC)CC4)cc23)cc1` [Example I-1112] it is below 0.1 µM. To `COc1cccc(N2CCN(C(=O)c3cc4c(-c5cc(F)c(F)cc5OC)cc(C5=CCCN(C(=O)CCn6ccnn6)C5)c(F)c4[nH]3)CC2)n1` [Example I-590] belongs below 0.1 µM; to `COc1ccccc1-c1cc(C2=CCCN(C(=O)CCn3ccnn3)C2)c(F)c2[nH]c(C(=O)N3CCN(c4cc(OC)c5c(c4)nnn5C)CC3)cc12` [Example I-962], below 0.1 µM; to `COc1cccnc1N1CCN(C(=O)c2cc3c(-c4cnccc4C(C)C)cc(C4=CCCN(C(=O)CCn5ccnn5)C4)c(F)c3[nH]2)CC1` [Example I-607], above 100 µM. To `CCc1ccncc1-c1cc(C2=CCCN(C(=O)CCn3ccnn3)C2)c(F)c2[nH]c(C(=O)N3CCN(c4ncc(Cl)cc4OC)CC3)cc12` [Example I-472] belongs below 0.1 µM. In the case of `COc1ccccc1-c1cc(C2=CCCN(C(=O)CCn3ccnn3)C2)c(F)c2[nH]c(C(=O)N3CCN(c4nc(C)cs4)CC3)cc12` [Example I-1024], the IC50 was below 0.1 µM. The figure for `COc1cccnc1N1CCN(C(=O)c2cc3c(-c4ccccc4OC(F)(F)F)cc(C4=CCCN(C(=O)CCn5ccnn5)C4)c(F)c3[nH]2)CC1` [Example I-558] is below 0.1 µM; for `CCc1ccncc1-c1cc(C2=CCCN(C(=O)CCn3ccnn3)C2)c(F)c2[nH]c(C(=O)N3Cc4cnn(C)c4C3)cc12` [Example I-704] it is 10 to 100 µM. The figure for `COc1cc(F)cnc1N1CCN(C(=O)c2cc3c(-c4cccc(-c5ccncc5)c4)cc(C4=CCCN(C(=O)CCn5ccnn5)C4)c(F)c3[nH]2)CC1` [Example I-626] is below 0.1 µM. The figure for `COc1ccccc1-c1cc(C2CCCN(C(=O)CCn3ccnn3)C2)c(F)c2[nH]c(C(=O)N(C)C)cc12` (stereo not drawn) [Example I-1193] is below 0.1 µM; for `CCc1ccncc1-c1cc(C2=CCCN(C(=O)CCn3ccnn3)C2)c(F)c2[nH]c(C(=O)N3CCN(c4ncc(F)cc4OC)CC3)cc12` [Example I-476] it is below 0.1 µM.

For the compound `COc1ccccc1-c1cc(C2=CCCN(C(=O)CCn3ccnn3)C2)c(F)c2[nH]c(C(=O)N3CCN(c4cc(C#N)ccc4OC)CC3)cc12` [Example I-356, 3-(4-(6-(1-(3-(1H-1,2,3-triazol-1-yl)propanoyl)-1,2,5,6-tetrahydropyridin-3-yl)-7-fluoro-4-(2-methoxyphenyl)-1H-indole-2-carbonyl)piperazin-1-yl)-4-methoxybenzonitrile], the IC50 was below 0.1 µM. The figure for `COc1ccccc1-c1cc(C2=CCCN(C(=O)CCn3ccnn3)C2)c(F)c2[nH]c(C(=O)N3Cc4cnn(C)c4C3)cc12` [Example I-464] is below 0.1 µM; for `COc1ccccc1-c1cc(C2=CCCN(C(=O)CCn3ccnn3)C2)c(F)c2[nH]c(C(=O)N3CCN(C)C(c4ccccc4)C3)cc12` (stereo not drawn) [Example I-911] it is 0.1 to 1 µM. To `COc1ccccc1-c1cc(C2=CCCN(C(=O)CCn3ccnn3)C2)c(F)c2[nH]c(C(=O)N3CCN(c4c(F)ccc5cnccc45)CC3)cc12` [Example I-972] belongs below 0.1 µM; to `Cc1ccc(-c2cc(C3=CCCN(C(=O)CCn4ccnn4)C3)cc3cc(C(=O)N(C)C)oc23)c(O)c1` [Example I-853], below 0.1 µM; to `COc1ccccc1-c1cc(C2=CCCN(C(=O)CCn3ccnn3)C2)c(F)c2[nH]c(C(=O)N3CCN(c4nc5ccccc5n4CC4CC4)CC3)cc12` [Example I-943], below 0.1 µM.

In the case of `CN(C)C(=O)c1cc2ccc(C3=CCCN(C(=O)CCc4nncs4)C3)cc2[nH]1` [Example I-828], the half-inhibitory concentration (IC50) fell in the range of 0.1 to 1 µM.

Turning to `COc1c(F)cccc1-c1cc(C2=CCCN(C(=O)CCn3ccnn3)C2)cc2cc(C(=O)N(C)C)oc12` [Example I-1076], the IC50 was below 0.1 µM.

Turning to `COc1cc(F)cnc1N1CCN(C(=O)c2cc3c(-c4cccc(C5CC5)c4)cc(C4=CCCN(C(=O)CCn5ccnn5)C4)c(F)c3[nH]2)CC1` [Example I-674], the concentration for half-maximal inhibition (IC50) fell in the range of 0.1 to 1 µM. With `COc1ccccc1-c1cc(C2=CCCN(C(=O)CCn3ccnn3)C2)c(F)c2[nH]c(C(=O)N3CCN(c4nccc(-c5ccccc5)n4)CC3)cc12` [Example I-904], the IC50 was in the range of 0.1 to 1 µM. The figure for `CCc1ccc(-c2cc(C(=O)N3Cc4cnn(CC)c4C3)cc3cc(C4=CCCN(C(=O)CC(=O)O)C4)n(CC(C)C)c23)c(C)n1` [Example I-801] is above 100 µM.

With `COc1cc(F)cnc1N1CCN(C(=O)c2cc3c(-c4ccc(CN5CCOCC5)nc4)cc(C4=CCCN(C(=O)CCn5ccnn5)C4)c(F)c3[nH]2)CC1` [Example I-1137], the IC50 is below 0.1 µM. To `COc1ccccc1-c1cc(C2=CCCN(C(=O)CCn3ccnn3)C2)c(F)c2[nH]c(C(=O)N3CCN(c4cccc5nonc45)CC3)cc12` [Example I-951] belongs below 0.1 µM; to `COc1cc(F)ccc1-c1cc(C2=CCCN(C(=O)CCn3ccnn3)C2)c(F)c2[nH]c(C(=O)N3CCN(c4ccccc4OC)CC3)cc12` [Example I-598], below 0.1 µM; to `CCOc1cccnc1N1CCN(C(=O)c2cc3c(-c4cnccc4OC)cc(C4=CCCN(C(=O)CCn5ccnn5)C4)c(F)c3[nH]2)CC1` [Example I-564], below 0.1 µM. Take `COc1ccncc1-c1cc(C2=CCCN(C(=O)CCn3ccnn3)C2)c(F)c2[nH]c(C(=O)N3CCN(c4ncncc4OC)CC3)cc12` [Example I-429]: the IC50 is below 0.1 µM. To `COc1ccncc1-c1cc(C2=CCCN(C(=O)CCn3ccnn3)C2)c(F)c2[nH]c(C(=O)N(C)C)cc12` [Example I-1065] belongs below 0.1 µM; to `CCc1ccncc1-c1cc(C2=CCCN(C(C)=O)C2)c(F)c2[nH]c(C(=O)N3Cc4cnn(C)c4C3)cc12` [Example I-702], 10 to 100 µM. The figure for `COc1cccnc1N1CCN(C(=O)c2cc3c(C4CCC5(CCNCC5)CC4)cc(C4=CCCN(C(=O)CCn5ccnn5)C4)c(F)c3[nH]2)CC1` [Example I-698] is 10 to 100 µM; for `COc1ccccc1-c1cc(C2=CCCN(C(=O)CCn3ccnn3)C2)c(F)c2[nH]c(C(=O)N3CCN(c4ncc(F)c(F)c4OC)CC3)cc12` [Example I-510] it is below 0.1 µM; for `COc1ccccc1-c1cc(C2=CCCN(C(=O)CCn3ccnn3)C2)c(F)c2[nH]c(C(=O)N3CCN(c4cc(C)c(O)c(C)c4)CC3)cc12` [Example I-1032] it is 0.1 to 1 µM. As to `COCc1cccc(NC(=O)c2cc3c(-c4ccccc4OC)cc(C4=CCCN(C(=O)CCn5ccnn5)C4)c(F)c3[nH]2)c1` [Example I-1028], the concentration for half-maximal inhibition (IC50) lay in the range of 1 to 10 µM. Turning to `CNc1ccc(-c2cc(C3=CCCN(C(=O)CCn4ccnn4)C3)cc3[nH]c(C(=O)N(C)C)cc23)c(C)c1` [Example I-1053], the IC50 was below 0.1 µM. The figure for `COc1ncccc1-c1cc(C2=CCCN(C(=O)CCn3ccnn3)C2)cc2cc(C(=O)N(C)C)oc12` [Example I-1082] is below 0.1 µM; for `COC(=O)C1CN(C(=O)c2cc3c(-c4ccccc4OC)cc(C4=CCCN(C(=O)CCn5ccnn5)C4)c(F)c3[nH]2)CC1C` (stereo not drawn) [Example I-998] it is below 0.1 µM.

Consider `C[C@@H](C(=O)N1CCC=C(c2ccc3cc(C(=O)N(C)C)[nH]c3c2)C1)n1ccccc1=O` [Example I-834], for which the IC50 was in the range of 0.1 to 1 µM. To `COc1ccccc1-c1cc(C2=CCCN(C(=O)CCn3ccnn3)C2)c(F)c2[nH]c(C(=O)N3CCN(c4ccc(OC)c(OC)c4OC)CC3)cc12` [Example I-922] belongs 0.1 to 1 µM. To `CC(=O)N1CCN(c2cc(C3=CCCN(C(=O)CCn4ccnn4)C3)cc3cc(C(=O)N(C)C)oc23)CC1` [Example I-1186] belongs below 0.1 µM; to `CN(C)C(=O)c1cc2cc(C3=CCCN(C(=O)CCn4ccnn4)C3)cc(NCc3ccccc3C3CC3)c2o1` [Example I-878], below 0.1 µM; to `CN(C)C(=O)c1cc2cc(C3=CCCN(C(=O)C(Cn4ccnn4)c4cccc(C#N)c4)C3)ccc2o1` (stereo not drawn) [Example I-835], 0.1 to 1 µM.

`COc1ccncc1-c1cc(C2=CCCN(C(=O)CCn3ccnn3)C2)c(F)c2[nH]c(C(=O)N3CC=C(c4ccc(F)c(OC)n4)CC3)cc12` [Example I-434]: the IC50 is below 0.1 µM.
